Source: US9572347B2, “Method for inactivating a virus” (THE UNIVERSITY OF TOKYO, priority 2009, dated 2017)

System: Qβ phage (NBRC 20012)
Assay: phage inactivation ability test on sample-coated glass plate (Example 1 method)
Assay type: cell-based
Conditions: same copper ion ratio, contact of 30 minutes, FIG. 2

Compound | phage inactivation effect
cuprous sulfide [Cu2S] | high phage inactivation effect
[Cu+].[I-] [CuI, cuprous iodide] | high phage inactivation effect
cupric sulfide [CuS, reference compound] | almost no inactivation effect
[Cl][Cu] [CuCl, cuprous chloride] | almost the same phage inactivation ability as that of cuprous oxide
